Laboratory results as given in US11752117B2, “Methods and compositions for diagnosing and treating glaucoma” (priority 2017, dated 2023).
Values joined by “and” are separate entries in the source; they are usually repeats but may differ in a detail not shown here. Equal entries are not always repeated.

Assays:
rabbits = test: Effect of KATP channel blockers and openers on intraocular pressure in rabbits; type: in vivo; details: 800 μg of blockers, within 1 hour
Description: Tolbutamide, a well-known and world-wide clinically approved drug to treat Type II diabetes, was used as the prototype blocker of the KATP channel. […] Tolbutamide solution decreased IOP not only in glaucomatous patients, but also in patients with elevated IOP after cataract surgery.

[1] = test system: sulfonylurea receptor in trabecular meshwork cells; test: 3H-glibenclamide binding and displacement, bovine trabecular meshwork cells
Protocol: FIG. 1 depicts, in accordance with embodiments herein, binding of ^3H-glibenclamide to bovine trabecular meshwork cells (2.5×10^5 per 0.5 ml of reaction mixture) at various concentrations of ligand. Red: non-specific binding; green: specific binding. Shown is mean±SD.
(§1) FIG. 2 depicts, in accordance with embodiments herein, displacement of ^3H-glibenclamide bound to trabecular meshwork cells (green) and RIN-m5F cells (red) by tolbutamide.
Non-specific binding was determined as the residual binding in the presence of 20 μM non-labeled glibenclamide. After 2 hrs incubation, ^3H-bound glibenclamide was separated from free ^3H-glibenclamide on Whatman GF/F filters soaked in incubation buffer. Specific binding as calculated as the difference between binding in the absence and presence of non-labeled […] glibenclamide (FIG. 1).

[2] = test system: human trabecular meshwork cell; test: 86Rb efflux from human trabecular meshwork cells; type: cell-based
Description: FIG. 3 depicts, in accordance with embodiments herein, effect of glybenclamide on the efflux of ^86Rb from human trabecular meshwork cell.
FIG. 4 depicts, in accordance with embodiments herein, effect of chlorpromazine on the efflux of ^86Rb from human trabecular meshwork cell.

[3] = test system: patients with elevated IOP; test: Effect of one drop of 0.4% tolbutamide on IOP in human subjects; type: in vivo; details: for effect on IOP: glaucomatous patients and patients with elevated IOP after cataract surgery (lens extraction)
Protocol: a. Effect of 1 drop of 0.4% tolbutamide. Three patients with elevated TOP, due to exfoliative glaucoma, to POAG and to the increase in TOP that occurs in some patients following lens extraction, were treated with one drop of 0.4% tolbutamide solution. TOP was measured at “0” time and at one hour intervals for 5 hours (when possible) by a nurse while the patient was in the hospital.

[4] = test system: ocular hypertensive patient; test: Fluorophotometry of aqueous humor inflow and outflow facility; type: in vivo, human
Protocol: Thus, they investigated whether one drop of […] tolbutamide would affect aqueous dynamics using fluorophotometry to measure aqueous production and outflow.
Fluorophotometry. To define the mechanism of action of tolbutamide, measurements of aqueous dynamics were done on patient 2 (See FIG. 6). For this study TOP and rate of aqueous formation were measured at 9:00 A.M. The patient was asked to apply one drop of drug to the right eye at 9:15 A.M. and one at 10:00 P.M. for 3 days. On the morning of the fourth day TOP and rate of aqueous formation were again measured.
Facility of Outflow (C) was calculated after Goldman:
[formula] where IOPt is the intraocular pressure in mmHg at the time the rate of inflow is measured. Episcleral pressure for this patient was estimated at 9 mmHg.

patients = test: Adverse ocular effects of tolbutamide eye drops
Description: Specifically, patients were monitored for discomfort, ocular pain, tearing, photophobia, erythema, swelling, discharge and scaling, palpebral conjunctival inflammation, bulbar conjunctival inflammation; limbal inflammation, corneal epithelial changes and focal stromal infiltrates. Symptoms were classified as 0=normal; 1=mild; 2=moderate; and 3=severe.

glaucoma patients = test: Extended twice-daily 0.4% tolbutamide treatment, IOP of glaucoma patients; type: in vivo, human
Protocol: FIG. 5 depicts, in accordance with embodiments herein, long-term effect of 0.4% tolbutamide treatment on IOP of a human subject. […] The bottles were color-coded and the patient was not aware of which bottle contained the drug and which contained the vehicle. The patient and the technician measuring the patient's IOP was not aware of which bottle contained the drug and which contained the vehicle
(§2) On days 1 through 5, IOP was measured at 8:00 A.M., 1 drop of 0.4% Tolbutamide suspended in buffered PBS (pH 6.7) was instilled to the right eye and IOP measured at the indicated times. A second drop was administered at 10:00 PM. All measurements and drug administrations were done in the hospital. The bottles were color-coded and the patient was not aware of which bottle contained the drug and which contained the vehicle. […]
b. Effect of 0.4% tolbutamide on human subjects for an extended time. To determine whether longer-term treatment with tolbutamide lowered TOP without any significant side effects, […] patient was treated with one drop of 0.4% tolbutamide twice daily (FIGS. 5-7) as shown in the figures. Vials containing drug and vehicle were color-coded by the manufacturing facility; the patient, the nurse and the investigator were not aware which vial contained the drug and which vial contained the vehicle.
as §2, with “hospital, since” for “hospital. The bottles were color-coded and”, “admitted for an unrelated condition.” for “not aware of which bottle contained the drug and which contained the vehicle.”

[5] = molecular target: T1, sulfonylurea receptor of RIN-m5F cells (Rattus norvegicus, UniProt Q09429); test: 3H-glibenclamide displacement, RIN-m5F cells; type: binding; details: compared with bovine TM cells
T1 construct: displacement of ^3H-glibenclamide by tolbutamide in bovine trabecular meshwork cells and RIN-m5F cells; host or cells: RIN-m5F rat insulinoma cells
Description: as §1

[6] = test system: normal cynomologus monkeys; test: Effect of tolbutamide on IOP of normal cynomologus monkeys; type: in vivo; details: for IOP 1 hour post-treatment OD(treated): ketamine anesthesia
Protocol: Effect of Tolbutamide on TOP of Normal Cynomologus Monkeys: Formulations of the KA channel inhibitor tolbutamidewere tested as a suspension and as a solution for its ability to lower intraocular pressure in normal cynomologus monkeys. For the suspension, 0.4% tolbutamide was prepared in NaCl/borate buffer (0.8 mg NaCl, 1.0 mg boric acid, pH 7.2, water to 1 ml; for the solution, 0.4% tolbutamide was solubilized in 0.25 M NaOH and added to 0.4% hypromellose (HPMC) and the pH adjusted to 6.7. Tonicity was adjusted to 300 mOSm with NaCl and preserved with 0.001% thimerosal. The suspension and solution were tested as follows: Monkeys were anesthetized with ketamine hydrochloride and the baseline IOP determined. One drop of drug was administered to the right eye and the IOP determined 1 hour later, while the animals were still under anesthesia; the left eye served as a control. Two animals for each treatment were used. The decrease in IOP in the untreated eye is the result of anesthesia.

[7] = after 3 days, one drop of 0.5% solution to the eye twice daily
[8] = Patient 2, 0.4% in PBS pH 6.7 twice daily, Day 1 6:30 PM
[9] = Patient 2, 0.4% in PBS pH 6.7 twice daily, Day 2 4:00 PM
[10] = Patient 2, 0.4% in PBS pH 6.7 twice daily, Day 2 8:00 AM
[11] = Patient 2, 0.4% in PBS pH 6.7 twice daily, Day 2 8:00 PM
[12] = Patient 2, 0.4% in PBS pH 6.7 twice daily, Day 3 4:00 PM
[13] = Patient 2, 0.4% in PBS pH 6.7 twice daily, Day 3 8:00 AM
[14] = Patient 2, 0.4% in PBS pH 6.7 twice daily, Day 3 8:00 PM
[15] = Patient 2, 0.4% in PBS pH 6.7 twice daily, Day 4 4:00 PM
[16] = Patient 2, 0.4% in PBS pH 6.7 twice daily, Day 4 8:00 AM
[17] = Patient 2, 0.4% in PBS pH 6.7 twice daily, Day 4 8:00 PM
[18] = Patient 2, 0.4% in PBS pH 6.7 twice daily, Day 5 2:00 PM
[19] = Patient 2, 0.4% in PBS pH 6.7 twice daily, Day 5 8:00 AM

T1 sequence (Q09429 whole entry): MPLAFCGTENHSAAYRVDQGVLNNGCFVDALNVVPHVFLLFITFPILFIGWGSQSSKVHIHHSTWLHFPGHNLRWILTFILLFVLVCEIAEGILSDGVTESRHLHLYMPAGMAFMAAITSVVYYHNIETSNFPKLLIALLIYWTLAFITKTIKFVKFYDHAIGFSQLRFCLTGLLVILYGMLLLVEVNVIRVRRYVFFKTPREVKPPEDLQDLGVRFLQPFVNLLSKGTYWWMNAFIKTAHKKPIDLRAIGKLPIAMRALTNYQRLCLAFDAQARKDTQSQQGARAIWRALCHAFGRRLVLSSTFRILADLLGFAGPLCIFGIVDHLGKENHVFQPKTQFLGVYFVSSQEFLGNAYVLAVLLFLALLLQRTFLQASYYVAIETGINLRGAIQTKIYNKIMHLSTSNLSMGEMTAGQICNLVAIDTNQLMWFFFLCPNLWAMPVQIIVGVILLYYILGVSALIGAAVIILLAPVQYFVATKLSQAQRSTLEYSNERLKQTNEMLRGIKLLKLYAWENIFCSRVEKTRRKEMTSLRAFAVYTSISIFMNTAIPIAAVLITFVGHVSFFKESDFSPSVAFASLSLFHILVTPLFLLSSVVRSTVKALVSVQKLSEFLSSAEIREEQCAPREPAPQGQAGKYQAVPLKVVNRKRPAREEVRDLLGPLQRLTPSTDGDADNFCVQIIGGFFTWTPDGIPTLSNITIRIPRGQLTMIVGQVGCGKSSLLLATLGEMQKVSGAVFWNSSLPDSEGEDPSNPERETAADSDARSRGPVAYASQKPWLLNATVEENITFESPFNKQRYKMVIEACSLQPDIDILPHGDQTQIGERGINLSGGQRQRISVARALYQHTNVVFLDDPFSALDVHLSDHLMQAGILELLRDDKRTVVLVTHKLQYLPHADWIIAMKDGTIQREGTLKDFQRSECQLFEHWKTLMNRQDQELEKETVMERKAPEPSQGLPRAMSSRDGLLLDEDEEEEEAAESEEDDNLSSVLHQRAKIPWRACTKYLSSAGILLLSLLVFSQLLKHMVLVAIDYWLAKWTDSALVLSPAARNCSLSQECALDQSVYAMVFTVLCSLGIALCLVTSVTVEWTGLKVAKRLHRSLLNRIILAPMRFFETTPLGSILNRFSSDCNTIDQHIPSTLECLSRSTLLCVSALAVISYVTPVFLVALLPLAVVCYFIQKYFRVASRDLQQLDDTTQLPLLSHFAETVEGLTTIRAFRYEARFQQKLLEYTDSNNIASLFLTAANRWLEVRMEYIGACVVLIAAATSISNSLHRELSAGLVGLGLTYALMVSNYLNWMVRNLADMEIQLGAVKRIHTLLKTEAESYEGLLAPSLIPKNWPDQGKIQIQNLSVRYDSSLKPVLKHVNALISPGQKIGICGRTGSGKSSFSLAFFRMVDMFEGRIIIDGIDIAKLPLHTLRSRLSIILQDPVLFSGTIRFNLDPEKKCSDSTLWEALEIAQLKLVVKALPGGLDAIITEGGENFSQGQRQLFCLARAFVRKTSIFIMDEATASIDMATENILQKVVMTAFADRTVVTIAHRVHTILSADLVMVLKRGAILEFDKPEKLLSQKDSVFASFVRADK
T1 sequence (P70673 whole entry partner): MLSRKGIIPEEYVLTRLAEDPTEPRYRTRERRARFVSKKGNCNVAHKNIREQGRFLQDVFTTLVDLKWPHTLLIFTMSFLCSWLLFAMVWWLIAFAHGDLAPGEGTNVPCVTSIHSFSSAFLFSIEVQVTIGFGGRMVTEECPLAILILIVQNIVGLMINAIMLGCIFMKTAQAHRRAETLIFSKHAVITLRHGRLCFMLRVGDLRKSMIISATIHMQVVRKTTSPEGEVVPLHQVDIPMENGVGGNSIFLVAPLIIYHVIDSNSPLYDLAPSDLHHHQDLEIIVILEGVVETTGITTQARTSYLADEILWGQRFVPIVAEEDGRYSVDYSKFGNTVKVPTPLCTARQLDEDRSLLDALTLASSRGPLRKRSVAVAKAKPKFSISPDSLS

## Cc1ccc(S(=O)(=O)NC(=O)NN2CCCCCC2)cc1 [tolazamide]
rabbits
  effect on intraocular pressure: decreased IOP

## CCCNC(=O)NS(=O)(=O)c1ccc(Cl)cc1 [chlorpropanamide]
rabbits
  effect on intraocular pressure: decreased IOP

## CC1=NS(=O)(=O)c2cc(Cl)ccc2N1 [diazoxide]
rabbits
  effect on intraocular pressure: increased IOP significantly

## COc1ccc(Cl)cc1C(=O)NCCc1ccc(S(=O)(=O)NC(=O)NC2CCCCC2)cc1 [Glybenclamide, glibenclamide]
[1]; on ice, 2 hrs incubation
  binding of 3H-glibenclamide to trabecular meshwork cells: have a receptor for glybenclamide
[2]
  potassium efflux from trabecular meshwork cells as indicated by 86Rubidium efflux: inhibit potassium efflux
[2]; Homo sapiens, at 10 nM, dose dependent
  inhibition at 0.01 µM: 50%
rabbits
  effect on intraocular pressure: decreased IOP

## CN(C)CCCN1c2ccccc2Sc2ccc(Cl)cc21 [Chlorpromazine, chlorpromazine]
[2]
  potassium efflux from trabecular meshwork cells as indicated by 86Rubidium efflux: inhibit potassium efflux
[2]; Homo sapiens, at 1 μM, dose dependent
  inhibition at 1 µM: 20%

## CCCCNC(=O)NS(=O)(=O)c1ccc(C)cc1 [Tolbutamide, tolbutamide]
[1]; bovine TM cells, compared with RIN-m5F cells
  kinetics of displacement of 3H-glibenclamide by tolbutamide: same kinetics
[3]; 0.4%
  IOP spike that occurs following cataract surgery: prevents the IOP spike
[3]; 0.4%, primary open angle glaucoma and exfoliative glaucoma patients
  lowering of intraocular pressure: 25-50%
[3]; Patient 1 Exfoliative Glaucoma of OD, OD, 2 hrs after one drop 0.4% solution, pre-treatment 48
  IOP: 44 mm of Hg
[3]; Patient 1 Exfoliative Glaucoma of OD, OD, 3 hrs after one drop 0.4% solution, pre-treatment 48
  IOP: 32 mm of Hg
[3]; Patient 1 Exfoliative Glaucoma of OD, OD, 4 hrs after one drop 0.4% solution, pre-treatment 48
  IOP: 30 mm of Hg
[3]; Patient 1 Exfoliative Glaucoma of OD, OD, 5 hrs after one drop 0.4% solution, pre-treatment 48
  IOP: 30 mm of Hg
[3]; Patient 1 Exfoliative Glaucoma of OD, OS, 2 hrs, pre-treatment 20
  IOP: 18 mm of Hg
[3]; Patient 1 Exfoliative Glaucoma of OD, OS, 3 hrs, pre-treatment 20
  IOP: 14 mm of Hg
[3]; Patient 1 Exfoliative Glaucoma of OD, OS, 4 hrs, pre-treatment 20
  IOP: 14 mm of Hg
[3]; Patient 1 Exfoliative Glaucoma of OD, OS, 5 hrs, pre-treatment 20
  IOP: 14 mm of Hg
[3]; Patient 2 Primary Open Angle Glaucoma, OD, 1 hr after one drop 0.4% solution, pre-treatment 34
  IOP: 30 mm of Hg
[3]; Patient 2 Primary Open Angle Glaucoma, OD, 3 hrs, pre-treatment 34
  IOP: 26 mm of Hg
[3]; Patient 2 Primary Open Angle Glaucoma, OD, 4 hrs, pre-treatment 34
  IOP: 22 mm of Hg
[3]; Patient 2 Primary Open Angle Glaucoma, OD, 5 hrs, pre-treatment 34
  IOP: 22 mm of Hg
[3]; Patient 2 Primary Open Angle Glaucoma, OS, 1 hr, pre-treatment 32
  IOP: 27 mm of Hg
[3]; Patient 2 Primary Open Angle Glaucoma, OS, 3 hrs, pre-treatment 32
  IOP: 22 mm of Hg
[3]; Patient 2 Primary Open Angle Glaucoma, OS, 4 hrs, pre-treatment 32
  IOP: 20 mm of Hg
[3]; Patient 2 Primary Open Angle Glaucoma, OS, 5 hrs, pre-treatment 32
  IOP: 20 mm of Hg
[3]; Patient 3 IOP Spike after Lens Extraction, OD, 2 hrs after one drop 0.4% solution, pre-treatment 30
  IOP: 20 mm of Hg
[3]
  effect on IOP: decreased IOP
[3]; listed as tolbutamide
  effect on IOP: decrease TOP significantly
[4]; 0.4%
  increase of aqueous production: 150%
  increase of outflow via the trabecular meshwork-Schlemm's canal complex: 350%
  net outflow increase: 200%
[4]; [7]
  increase of aqueous formation: approximately 150%
  increase of outflow via the trabecular meshwork/Schlemm's canal: 350%
[4]; patient 2, one drop right eye twice daily for 3 days, morning of fourth day, Pre-Treatment 1.9
  Inflow OD Post-treatment: 3.0 µL/min
[4]; patient 2, one drop right eye twice daily for 3 days, morning of fourth day, Pre-Treatment 22
  IOP OD Post-treatment: 15 mmHg
[4]; patient 2, one drop right eye twice daily for 3 days, calculated after Goldman, episcleral pressure 9 mmHg, Pre-Treatment 0.146
  Outflow Facility OD Post-treatment: 0.50 μl/min/mmHg
patients; all patients, any time during the study
  severe symptoms of ocular toxicity: free of severe symptoms
patients; drops to the eye, all cases
  symptoms of ocular toxicity, classification: 0-1
Glaucoma patients; Patient 1 (high IOP, no visual field loss), 0.4% suspended in PBS pH 6.7, right eye twice daily, days 1-6, first day IOP remained high
  long-term effect on IOP: decreased significantly during the next 5 days
Glaucoma patients; Patient 2 (refractory to Timolol), 0.4% in PBS pH 6.7 twice daily, Day 1 6:00 PM, Day 1 4:00 PM value 31
  IOP OD (treated): 21 mm Hg
Glaucoma patients; Patient 2, 0.4% in PBS pH 6.7 twice daily, Day 1 6:00 PM
  IOP OD (treated) % Change: −32%
Glaucoma patients; [8]
  IOP OD (treated): 18 mm Hg
  IOP OD (treated) % Change: −42%
Glaucoma patients; [9]
  IOP OD (treated): 27 mm Hg
  IOP OD (treated) % Change: −13%
Glaucoma patients; [10]
  IOP OD (treated): 16 mm Hg
  IOP OD (treated) % Change: −48%
Glaucoma patients; [11]
  IOP OD (treated): 28 mm Hg
  IOP OD (treated) % Change: −10%
Glaucoma patients; [12]
  IOP OD (treated): 22 mm Hg
  IOP OD (treated) % Change: −29%
Glaucoma patients; [13]
  IOP OD (treated): 20 mm Hg
  IOP OD (treated) % Change: −35%
Glaucoma patients; [14]
  IOP OD (treated): 21 mm Hg
  IOP OD (treated) % Change: −32%
Glaucoma patients; [15]
  IOP OD (treated): 22 mm Hg
  IOP OD (treated) % Change: −29%
Glaucoma patients; [16]
  IOP OD (treated): 18 mm Hg
  IOP OD (treated) % Change: −42%
Glaucoma patients; [17]
  IOP OD (treated): 24 mm Hg
  IOP OD (treated) % Change: −23%
Glaucoma patients; [18]
  IOP OD (treated): 23 mm Hg
  IOP OD (treated) % Change: −26%
Glaucoma patients; [19]
  IOP OD (treated): 17 mm Hg
  IOP OD (treated) % Change: −45%
Glaucoma patients; glaucoma patients, 1 drop (250 μg) twice daily, 6 days of the study
  effect on IOP: decreased IOP
[5]
  kinetics of displacement of 3H-glibenclamide by tolbutamide: same kinetics
rabbits
  effect on intraocular pressure: decreased IOP
[6]; 0.4% solution in 0.4% HPMC pH 6.7, one drop right eye
  IOP 1 hour post-treatment OD(treated): 22 mmHg and 17 mmHg
[6]; 0.4% suspension in NaCl/borate buffer, one drop right eye
  IOP 1 hour post-treatment OD(treated): 15 mmHg and 18 mmHg
[6]; cynomolgous monkeys, 500 μg, short-term 1-hour studies
  effect on IOP: decreased TOP
